Source: PubChem BioAssay (NCI)
Several values for one entry are separate records, joined by “and”; a condition that tells them apart may be missing. Identical values can stand only once.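 These data come from cells grown in 96-well plates and exposed to compound for 48 hours at five concentrations. The concentration for 50% growth inhibition is given as GI50. The concentration for full growth arrest is given as TGI.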

Assays:
Test in all cases: NCI anticancer screen, dose series, 48 h
A549 NSCLC = system: A549 NSCLC
SK-MEL-2 melanoma = system: SK-MEL-2 melanoma
ACHN renal = system: ACHN renal
HOP-62 NSCLC = system: HOP-62 NSCLC
U251 CNS = system: U251 CNS
K-562 leukemia = system: K-562 leukemia
T-47D breast = system: T-47D breast
PC-3 prostate = system: PC-3 prostate
SK-OV-3 ovarian = system: SK-OV-3 ovarian
M14 melanoma = system: M14 melanoma
SNB-75 CNS = system: SNB-75 CNS
SK-MEL-5 melanoma = system: SK-MEL-5 melanoma

SMILES	TGI (A549 NSCLC) [µM]	TGI (SK-MEL-2 melanoma)	TGI (ACHN renal)	TGI (HOP-62 NSCLC)	TGI (U251 CNS) [µM]	TGI (K-562 leukemia) [µM]	TGI (T-47D breast) [µM]	TGI (PC-3 prostate)	TGI (SK-OV-3 ovarian) [µM]	TGI (M14 melanoma)	TGI (SNB-75 CNS)	TGI (SK-MEL-5 melanoma) [µM]	GI50 (A549 NSCLC) [µM]	GI50 (ACHN renal) [µM]	GI50 (U251 CNS) [µM]	GI50 (K-562 leukemia) [µM]	GI50 (SK-MEL-2 melanoma) [µM]	GI50 (HOP-62 NSCLC) [µM]	GI50 (M14 melanoma) [µM]	GI50 (SNB-75 CNS) [µM]
COC(=O)/C=C1/OC(c2ccccc2)=C(Cl)C1=O	69.4	45.8 µM	33 µM	> 58 µM	27.1	25.9	> 56.6	31.6 µM	> 100	35.2 µM	48.5 µM	28.7	–	–	–	–	–	–	–	–
O=C1CSC2(CCN(CCCN3c4ccccc4Sc4ccc(Cl)cc43)CC2)N1	23.4	31 µM	23.7 µM	25.5 µM	20.6	16.8	15.6	16.9 µM	21.5	20.6 µM	20.1 µM	23	–	–	–	–	–	–	–	–
Cn1c(N/N=C/c2ccc(Cl)cc2)nc(-c2ccc(Cl)cc2)c(C#N)c1=O	39.2	33.1 µM	> 100 µM	25.1 µM	72.1	> 100	> 100	90.1 µM	> 100	42 µM	73.2 µM	> 100	–	–	–	–	–	–	–	–
C=C(Br)CN(C#N)CC(=C)Br	> 100	> 100 µM	> 100 µM	> 100 µM	> 100	> 100	> 100	> 100 µM	> 100	> 100 µM	> 100 µM	> 100	–	–	–	–	–	–	–	–
CCCCNC(=S)Nc1nc(C(=O)NNS(=O)(=O)c2ccccc2)cs1	> 100	43.8 µM	85.5 µM	> 100 µM	> 100	> 100	> 100	93.1 µM	> 100	> 100 µM	76.6 µM	31	–	–	–	–	–	–	–	–
NS(=O)(=O)c1ccc(/C=C/c2cccc(O)c2)cc1	> 100	78.2 µM	99.6 µM	> 100 µM	> 100	> 100	87.4	> 100 µM	> 100	> 100 µM	99 µM	48.4	19.8	25.8	21.1	43.4	–	–	–	–
NC1CCC(c2cc3ccccc3s2)(N2CCCCC2)CC1 (stereo not given)	8.46	2.95 µM	12.5 µM	4.5 µM	3.05	3.44	5.51	3.59 µM	22.6	2.88 µM	25.2 µM	4.16	–	–	–	–	–	–	–	–
CC1=C(C#N)S(=O)(=O)c2c(oc(C)c2C)N1	> 100	> 100 µM	> 100 µM	> 100 µM	> 100	> 100	> 100	> 100 µM	> 100	> 100 µM	> 100 µM	> 100	–	–	–	–	–	–	–	–
COc1ccc2c(c1)CC[C@@H]1[C@@H]2CC[C@]2(C)/C(=N/OCCN3CCCCC3)CC[C@@H]12	19.8	18.7 µM	21.3 µM	21 µM	24.3	9.62	19.2	17.7 µM	23.7	5.88 µM	18.2 µM	6.27	–	–	–	–	–	–	–	–
CC(=O)O[C@H]1/C(=C/c2ccc(N(C)C)cc2)C[C@H]2[C@@H]3CC=C4C[C@@H](N5CCCC5)CC[C@]4(C)[C@H]3CC[C@]12C	> 100	> 100 µM	> 100 µM	> 100 µM	> 100	> 100	> 100	> 100 µM	> 100	> 100 µM	> 100 µM	> 100	–	–	–	–	–	–	–	–
O=C1CC(O)c2c(Cl)sc(Cl)c21 (stereo not given)	36.2	31.2 µM	26.2 µM	29.4 µM	20.2	> 28.7	> 24.2	28.5 µM	> 100	32.7 µM	29.5 µM	43.5	–	–	–	–	–	–	–	–
Cc1nn(-c2ccccc2)c(C)c1/C=N/NC(=O)c1sc(=S)n(-c2ccccc2)c1N	34.8	> 100 µM	4.32 µM	> 100 µM	> 100	> 100	> 100	> 100 µM	> 100	> 100 µM	3.98 µM	> 100	–	–	–	–	–	–	–	–
CC1(C)C2CCC1C(=O)C(C=O)C2 (stereo not given)	> 100	> 100 µM	> 100 µM	> 100 µM	> 100	> 100	> 100	> 100 µM	> 100	> 100 µM	> 100 µM	> 100	–	–	–	–	–	–	–	–
CC(=O)Oc1ccc2c(c1)CC[C@@H]1C2[C@@H](O[N+](=O)[O-])C[C@@]2(C)C1CC[C@@H]2O (stereo not given in full)	> 100	> 100 µM	> 100 µM	> 60.5 µM	> 100	72.1	> 100	> 100 µM	> 100	> 100 µM	> 85.2 µM	> 100	–	–	–	–	–	–	–	–
O=C(CSC1=NCCN1)c1ccccc1	> 100	> 100 µM	> 100 µM	> 100 µM	> 100	> 100	> 100	> 100 µM	> 100	> 100 µM	> 100 µM	> 100	–	–	–	–	–	–	–	–
COc1ccc(CN=CN/C(C#N)=C(\N)C#N)cc1OC	> 100	> 100 µM	> 100 µM	> 100 µM	> 100	> 100	> 100	> 100 µM	> 100	> 100 µM	> 100 µM	> 100	–	–	–	–	–	–	–	–
Cn1c2ccccc2n2c3nc4ccccc4nc3c(C#N)c12	> 100	> 100 µM	> 100 µM	> 100 µM	> 100	> 100	> 100	> 100 µM	> 100	> 100 µM	> 100 µM	> 100	–	–	–	–	–	–	–	–
Fc1cccc2nc(-c3ccccc3)cc(OCc3ccccc3)c12	> 100	> 100 µM	> 100 µM	> 100 µM	> 100	> 100	> 100	> 100 µM	> 100	> 100 µM	> 100 µM	> 100	–	–	–	–	–	–	–	–

SMILES	TGI (A549 NSCLC) [µM]	TGI (SK-MEL-2 melanoma)	TGI (ACHN renal)	TGI (HOP-62 NSCLC)	TGI (U251 CNS) [µM]	TGI (K-562 leukemia) [µM]	TGI (T-47D breast) [µM]	TGI (PC-3 prostate)	TGI (SK-OV-3 ovarian) [µM]	TGI (M14 melanoma)	TGI (SNB-75 CNS)	TGI (SK-MEL-5 melanoma) [µM]	GI50 (A549 NSCLC) [µM]	GI50 (ACHN renal) [µM]	GI50 (U251 CNS) [µM]	GI50 (K-562 leukemia) [µM]	GI50 (SK-MEL-2 melanoma) [µM]	GI50 (HOP-62 NSCLC) [µM]	GI50 (M14 melanoma) [µM]	GI50 (SNB-75 CNS) [µM]
CC1(C)N=C(N)N=C(N)N1c1cccc(CSc2ccccc2)c1	> 100	> 100 µM	> 100 µM	> 100 µM	> 100	> 100	> 100	> 100 µM	> 100	11.2 µM	43.8 µM	13.5	–	–	–	–	–	–	–	–
Cc1nc2ccccc2n1CCc1nc2ccccc2s1	> 100	> 100 µM	> 100 µM	> 100 µM	> 100	> 100	> 100	> 100 µM	> 100	> 100 µM	> 100 µM	23.6	–	–	–	–	–	–	–	–
O=C(CSc1nc2ccc(I)cc2c(=O)n1Cc1ccccc1)Nc1ccc(Br)cc1	> 100	> 100 µM	> 100 µM	> 100 µM	> 100	> 100	> 100	58.6 µM	> 100	> 100 µM	36.6 µM	> 100	–	–	–	–	–	–	–	–
Cc1cc2ccccc2c[n+]1CC(=O)CC([O-])(C(F)(F)F)C(F)(F)F	> 100	> 100 µM	> 100 µM	> 100 µM	> 100	> 100	> 100	> 100 µM	> 100	> 100 µM	> 100 µM	> 100	–	–	–	–	–	–	–	–
CN(C)CCOc1ccc(-c2c(Oc3ccc(Cl)cc3)c(=O)oc3ccccc23)cc1	> 32.5	22.6 µM	> 48.5 µM	87.8 µM	> 32.9	> 60	> 100	30.1 µM	65.7	3.12 µM	25.3 µM	4.55	–	–	–	–	–	–	–	–
CC1CC[C@]2(C(=O)O)CCC3(C)C(=C2[C@H]1C)C=CC1[C@@]2(C)CC[C@H](O)C(C)(C)C2CC[C@]13C (stereo not given in full)	62.6	> 100 µM	48.2 µM	74.8 µM	97.7	> 100	58.9	80.1 µM	45.5	> 100 µM	73.1 µM	56.6	–	–	–	–	–	–	–	–
CC1=Nn2c(nc3sc4c(c3c2=O)CCCC4)SC1	> 100	> 100 µM	> 100 µM	> 100 µM	> 100	> 100	> 100	> 100 µM	> 100	> 100 µM	> 100 µM	> 100	–	–	–	–	–	–	–	–
COc1ccc(N=C/C=C/Nc2ccc(OC)cc2)cc1	25.2	31 µM	29 µM	12.1 µM	10.2	31	35.3	26.1 µM	34.3	23.2 µM	33.1 µM	19.5	–	–	–	–	–	–	–	–
COC(=O)C(Cc1ccccc1)NC(=O)CNC(=O)CSc1nnc(COc2ccc(Cl)cc2)n1-c1ccccc1 (stereo not given)	34.5	33.8 µM	27.2 µM	35.3 µM	32.8	> 75.6	51.4	31.3 µM	28.6	31.7 µM	37.1 µM	29.8	–	–	–	–	–	–	–	–
NNC(=O)c1ccccc1NC(=O)/C(=C/c1ccccc1)NC(=O)c1ccccc1	> 100	> 100 µM	> 100 µM	> 100 µM	> 100	> 100	> 100	> 100 µM	> 100	> 100 µM	> 100 µM	> 100	–	–	–	–	–	–	–	–
COC(=O)c1c(O)ccc2c1c1c(n2C)C(=O)c2ccccc2C1=O	> 100	> 100 µM	35.8 µM	28 µM	67.5	> 100	13.1	> 100 µM	21.5	> 100 µM	15 µM	> 100	–	–	–	–	–	–	–	–
COC1C(O)=C2C(=O)OC(C)(O)/C=C/C=C\C=C/C=C/C(c3ccccc3)NC(=O)/C=C/C=C/C=C/C=C/C2(C)C1O (stereo not given)	0.0253	0.235 µM and 0.318 µM	0.0323 µM and 0.119 µM	0.212 µM and 0.193 µM	0.0382	> 100	0.0707	0.136 µM and 0.159 µM	0.134	0.447 µM and 0.19 µM	0.131 µM and 0.0786 µM	0.164	–	–	–	–	0.0929	0.041	0.0536	0.0145
COc1ccc(-c2cn3c(n2)sc2cc(C)ccc23)cc1	> 100	37.1 µM	> 100 µM	81.3 µM	21.8	> 100	> 100	50.9 µM	98.9	> 100 µM	37.3 µM	14.3	–	–	–	–	–	–	–	–
CCCCCCCCOCC1S(=O)(=O)OCCOS1(=O)=O	> 100	> 100 µM	> 100 µM	> 100 µM	> 100	> 100	> 100	> 100 µM	> 100	> 100 µM	> 100 µM	> 100	–	–	–	–	–	–	–	–
CSc1n[n+](C)cc(N)c1N	> 100	> 100 µM	> 100 µM	> 100 µM	> 100	> 100	> 100	> 100 µM	> 100	> 100 µM	> 100 µM	> 100	–	–	–	–	–	–	–	–
CC(NC(=O)c1ccc(OP(=O)(OCC2=CC(=O)c3ccccc3C2=O)N(C)CCCCCl)cc1)c1ccc(OCC2CCCCC2)c(C(N)=O)c1 (stereo not given)	5.6	30.2 µM	29.2 µM	32.9 µM	22.3	43.1	10.5	58.6 µM	48.8	13 µM	19.5 µM	2.02	–	–	–	–	–	–	–	–
C/C(=N/O)c1cccc(Nc2nc3ccccc3c3[nH]c4ccccc4c23)c1	8.8	5.8 µM	7.17 µM	8.83 µM	11.5	10.6	3.82	8.05 µM	22.1	6.3 µM	6.95 µM	4.08	–	–	–	–	–	–	–	–
c1ccc(N=NNNc2ccc(-c3nc4ccccc4[nH]3)cc2)cc1	> 100	88.7 µM	> 100 µM	> 100 µM	> 100	94.6	39.1	82.3 µM	> 100	> 100 µM	88.7 µM	> 100	–	–	–	–	–	–	–	–
